Measured values as given in ChEMBL document CHEMBL1201862, “PubChem BioAssay data set” (2004).
Several values for one entry are separate records, joined by “and”; a condition that tells them apart may be missing. Identical values can stand only once. Activity calls are given as the source filed them.

Columns and labels:
[1] = biological target: T1, Ubiquitin-conjugating enzyme E2 N (Homo sapiens, UniProt P61088); type: functional;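 also: Dose-response confirmation in a TR-FRET assay detecting UBC13-driven polyubiquitin chain formation, inhibition measured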
T1 sequence (P61088 whole entry): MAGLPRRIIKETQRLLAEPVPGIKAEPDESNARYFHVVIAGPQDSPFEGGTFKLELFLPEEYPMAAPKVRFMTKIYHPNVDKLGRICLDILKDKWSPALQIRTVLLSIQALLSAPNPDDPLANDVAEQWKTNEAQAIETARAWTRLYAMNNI

[2] = biological target: DNA dC->dU-editing enzyme APOBEC-3A (Homo sapiens, UniProt P31941); test: Dose Response confirmation of small molecule APOBEC3A DNA Deaminase Inhibitors via a fluorescence-based single-stranded DNA deaminase assay. [Related pubchem assays (depositor defined):AID493011, AID493024]; type: functional
DNA dC->dU-editing enzyme APOBEC-3A, sequence (P31941 whole entry): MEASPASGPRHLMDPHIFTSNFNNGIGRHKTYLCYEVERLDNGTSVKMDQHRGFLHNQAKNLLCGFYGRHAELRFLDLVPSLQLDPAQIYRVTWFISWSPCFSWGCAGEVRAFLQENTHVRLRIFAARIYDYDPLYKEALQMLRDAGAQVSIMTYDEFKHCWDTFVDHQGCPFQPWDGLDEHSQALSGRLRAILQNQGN

[3] = biological target: DNA dC->dU-editing enzyme APOBEC-3G (Homo sapiens, UniProt Q9HC16); type: functional;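 also: Dose-response counterscreen measuring inhibition of APOBEC3G DNA deaminase activity, run while confirming APOBEC3A inhibitors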
DNA dC->dU-editing enzyme APOBEC-3G, sequence (Q9HC16 whole entry, the tested form may be a part): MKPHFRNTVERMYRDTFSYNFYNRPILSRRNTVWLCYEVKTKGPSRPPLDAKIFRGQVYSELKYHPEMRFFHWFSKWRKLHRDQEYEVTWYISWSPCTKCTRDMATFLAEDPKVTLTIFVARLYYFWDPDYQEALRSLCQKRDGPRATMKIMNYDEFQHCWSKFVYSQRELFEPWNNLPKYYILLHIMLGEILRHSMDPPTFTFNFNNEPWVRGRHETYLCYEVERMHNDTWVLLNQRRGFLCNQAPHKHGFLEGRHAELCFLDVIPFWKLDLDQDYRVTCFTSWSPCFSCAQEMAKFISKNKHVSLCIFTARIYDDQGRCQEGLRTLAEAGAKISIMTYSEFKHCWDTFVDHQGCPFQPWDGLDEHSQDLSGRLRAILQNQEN

[4] = biological target: T2, Carboxy-terminal domain RNA polymerase II polypeptide A small phosphatase 1 (Homo sapiens, UniProt Q9GZU7); test: CTDSP1 inhibitors, concentration-response, biochemical, absorbance readout, ultra-high-throughput screen actives (AID 540297); type: functional
T2 sequence (Q9GZU7 whole entry): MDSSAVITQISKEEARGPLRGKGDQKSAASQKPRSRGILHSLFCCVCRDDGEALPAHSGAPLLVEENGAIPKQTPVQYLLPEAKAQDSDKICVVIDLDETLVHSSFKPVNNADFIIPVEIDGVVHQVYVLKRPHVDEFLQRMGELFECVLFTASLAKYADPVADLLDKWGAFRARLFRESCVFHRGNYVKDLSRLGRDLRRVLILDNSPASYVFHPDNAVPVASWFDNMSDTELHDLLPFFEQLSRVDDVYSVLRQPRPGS

[5] = biological target: T3, Short transient receptor potential channel 4 (Mus musculus, UniProt Q9QUQ5); test: block of DAMGO-driven TRPC4 calcium entry – cell-based, HEK293 TRPC4/mu-opioid, Fluo-4 calcium, dose response (AID 434942); type: functional;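 also: potency of inhibitors blocking the TRPC4 calcium response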
T3 sequence (Q9QUQ5 whole entry): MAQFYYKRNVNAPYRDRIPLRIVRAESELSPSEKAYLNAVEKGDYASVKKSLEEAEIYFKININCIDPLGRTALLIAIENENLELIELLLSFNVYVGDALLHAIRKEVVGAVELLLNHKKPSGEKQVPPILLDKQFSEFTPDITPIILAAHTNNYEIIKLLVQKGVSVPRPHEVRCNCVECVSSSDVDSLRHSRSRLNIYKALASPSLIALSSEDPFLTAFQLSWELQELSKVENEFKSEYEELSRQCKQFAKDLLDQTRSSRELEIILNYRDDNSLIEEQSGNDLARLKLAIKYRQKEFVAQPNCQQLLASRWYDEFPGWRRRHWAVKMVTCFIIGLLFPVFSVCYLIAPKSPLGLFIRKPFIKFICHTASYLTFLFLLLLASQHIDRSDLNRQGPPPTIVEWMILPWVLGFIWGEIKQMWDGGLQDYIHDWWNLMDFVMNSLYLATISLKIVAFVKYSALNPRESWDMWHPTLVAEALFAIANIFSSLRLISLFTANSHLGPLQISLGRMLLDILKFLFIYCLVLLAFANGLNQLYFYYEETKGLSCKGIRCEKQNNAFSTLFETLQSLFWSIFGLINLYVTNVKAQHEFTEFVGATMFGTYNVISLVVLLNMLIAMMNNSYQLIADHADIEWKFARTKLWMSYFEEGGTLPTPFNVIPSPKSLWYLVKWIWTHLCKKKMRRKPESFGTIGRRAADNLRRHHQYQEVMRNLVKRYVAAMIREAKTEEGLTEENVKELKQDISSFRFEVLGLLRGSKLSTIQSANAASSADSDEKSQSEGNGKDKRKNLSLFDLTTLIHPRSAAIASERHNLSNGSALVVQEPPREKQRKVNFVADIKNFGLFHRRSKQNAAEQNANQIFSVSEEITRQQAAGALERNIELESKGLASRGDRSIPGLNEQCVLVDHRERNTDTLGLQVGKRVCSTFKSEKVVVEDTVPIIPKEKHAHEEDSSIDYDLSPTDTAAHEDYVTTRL

Cytochrome P450 3A4 [6] = biological target: T4, Cytochrome P450 3A4 (Homo sapiens, UniProt P08684); details: Potency
T4 sequence (P08684 whole entry): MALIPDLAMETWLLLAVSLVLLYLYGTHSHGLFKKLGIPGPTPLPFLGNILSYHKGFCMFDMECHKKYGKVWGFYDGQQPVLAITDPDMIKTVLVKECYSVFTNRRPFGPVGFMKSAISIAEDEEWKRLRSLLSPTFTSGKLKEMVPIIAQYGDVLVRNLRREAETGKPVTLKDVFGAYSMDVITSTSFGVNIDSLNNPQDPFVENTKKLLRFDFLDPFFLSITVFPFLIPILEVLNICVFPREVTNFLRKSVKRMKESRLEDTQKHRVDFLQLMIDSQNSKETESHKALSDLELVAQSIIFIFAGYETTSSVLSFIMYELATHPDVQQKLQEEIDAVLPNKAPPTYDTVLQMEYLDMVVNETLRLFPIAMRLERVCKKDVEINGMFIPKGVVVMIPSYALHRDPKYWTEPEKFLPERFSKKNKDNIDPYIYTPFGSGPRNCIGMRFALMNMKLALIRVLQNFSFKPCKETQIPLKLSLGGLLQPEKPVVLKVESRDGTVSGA

Large T antigen = Large T antigen (Simian virus 40, UniProt P03070); type: functional, Betapolyomavirus macacae;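 also: Confirmatory-stage PubChem screen for compounds that inhibit SV40 T antigen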
Large T antigen, sequence (P03070 whole entry): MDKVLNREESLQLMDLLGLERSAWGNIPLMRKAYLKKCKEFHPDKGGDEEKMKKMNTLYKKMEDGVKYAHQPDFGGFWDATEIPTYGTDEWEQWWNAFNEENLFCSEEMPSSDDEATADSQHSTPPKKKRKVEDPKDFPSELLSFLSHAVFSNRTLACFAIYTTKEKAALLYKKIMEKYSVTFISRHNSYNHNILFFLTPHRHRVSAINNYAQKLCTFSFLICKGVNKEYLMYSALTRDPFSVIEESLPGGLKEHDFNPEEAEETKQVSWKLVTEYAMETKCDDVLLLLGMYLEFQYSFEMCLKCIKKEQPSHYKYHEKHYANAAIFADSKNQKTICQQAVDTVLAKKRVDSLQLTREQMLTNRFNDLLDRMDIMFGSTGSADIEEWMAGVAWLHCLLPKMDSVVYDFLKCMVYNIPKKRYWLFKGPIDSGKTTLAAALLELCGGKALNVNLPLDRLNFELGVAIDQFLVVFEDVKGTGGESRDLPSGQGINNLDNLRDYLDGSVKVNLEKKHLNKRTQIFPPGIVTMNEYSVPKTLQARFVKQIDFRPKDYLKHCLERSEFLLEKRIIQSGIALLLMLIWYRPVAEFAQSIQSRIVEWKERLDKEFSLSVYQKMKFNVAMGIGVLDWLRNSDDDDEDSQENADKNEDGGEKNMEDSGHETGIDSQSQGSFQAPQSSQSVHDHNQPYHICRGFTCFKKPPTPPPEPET

[7] = biological target: FAD-linked sulfhydryl oxidase ALR (Homo sapiens, UniProt P55789); test: ALR-catalysed DTT oxidation blockers – biochemical, H2O2 detection, luminescence, cherry-pick, dose response (AID 493248)
FAD-linked sulfhydryl oxidase ALR, sequence (P55789 whole entry): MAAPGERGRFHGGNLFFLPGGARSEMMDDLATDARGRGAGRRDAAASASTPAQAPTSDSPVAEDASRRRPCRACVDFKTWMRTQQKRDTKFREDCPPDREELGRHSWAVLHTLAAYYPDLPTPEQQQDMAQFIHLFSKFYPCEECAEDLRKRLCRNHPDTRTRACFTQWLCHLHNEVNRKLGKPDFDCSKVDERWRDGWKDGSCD

[8] = biological target: T5, Heat shock factor protein 1 (Mus musculus, UniProt P38532); test: decrease of HSF1-responsive luciferase luminescence – cell-based, NIH3T3, dose retest, confirmation (AID 2382); type: functional;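 also: NIH3T3 fibroblasts with HSF1-driven luciferase reporter stressed by proteasome inhibitor MG132; luminescence from HSF1-driven luciferase expression after 8 hours of MG132 stress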
T5 sequence (P38532 whole entry): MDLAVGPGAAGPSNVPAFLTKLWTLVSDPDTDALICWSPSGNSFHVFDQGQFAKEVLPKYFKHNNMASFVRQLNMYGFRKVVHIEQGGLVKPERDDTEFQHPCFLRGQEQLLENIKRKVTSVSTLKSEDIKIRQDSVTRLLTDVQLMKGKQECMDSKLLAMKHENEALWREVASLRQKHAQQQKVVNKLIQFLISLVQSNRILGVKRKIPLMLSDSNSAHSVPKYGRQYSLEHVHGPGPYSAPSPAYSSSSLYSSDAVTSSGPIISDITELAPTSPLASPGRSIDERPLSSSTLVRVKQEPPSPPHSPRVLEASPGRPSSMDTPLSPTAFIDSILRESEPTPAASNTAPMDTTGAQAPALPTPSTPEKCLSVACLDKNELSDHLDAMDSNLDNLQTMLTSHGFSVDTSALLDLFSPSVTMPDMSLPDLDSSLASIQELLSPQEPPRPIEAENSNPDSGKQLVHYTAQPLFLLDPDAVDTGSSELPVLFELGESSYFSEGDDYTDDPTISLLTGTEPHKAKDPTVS

cells = type: functional
[9] = biological target: T5, Heat shock factor protein 1; test: enhancement of HSF1-driven luciferase signal – cell-based, NIH3T3, luminescence, dose retest, confirmation (AID 435004); type: functional;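 also: stress induced by proteasome inhibitor MG132 added 30 min after compound; luciferase reporter driven by HSF1 response element in NIH3T3 cells; actives raise luminescence as potentiators of the MG132 stress response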
[10] = blockers of bursicon-stimulated LGR2 cAMP reporter – cell-based, HEK293, CRE-luciferase reporter, cherry pick, set 2, dose response (AID 743343); type: functional;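 also: transfected cells were stimulated with diluted bursicon conditioned medium after compound addition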
[11] = blockade of melanocortin 4 receptor signaling – cell-based, plate reader, cherry pick, counter-screen for LGR2 antagonist project, dose response (AID 743444); type: functional;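 also: transfected HEK 293 cells stimulated with alpha-MSH peptide; potency of inhibitors of the alpha-MSH evoked signal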
[12] = viability loss in HEK293 cells – cell-based, plate reader, cherry-picked samples, cytotoxicity control, dose response (AID 743446); type: functional
[13] = A549 cell cytotoxicity, dose response, cytotoxicity control, plate reader, cherry-pick, antagonist series (AID 743412); type: functional, cell-based
[14] = toxicity toward HepG2 liver cells – cell-based, plate reader, cherry-pick, antagonist series, cytotoxicity control, dose response (AID 743416); type: functional
Cytochrome P450 3A4 [15] = biological target: T4, Cytochrome P450 3A4
[16] = blockers of HIV-1 ZM109 envelope-driven cell-cell fusion – HeLa effector, CEM target cells, luciferase, cherry-pick, dose response (AID 652058); type: functional, cell-based;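 also: luciferase signal from HIV-1 Env mediated cell-cell fusion of effector and target cells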
[17] = P. falciparum Dd2 growth inhibitors, dose response, SYBR Green, cherry-picked samples (AID 1159567); type: functional, cell-based
[18] = microbe, parasite or virus in culture; type: functional; details: Mycobacterium tuberculosis

Cc1ccc2[nH]c(O)c(/N=N/C(=N)S)c2c1
IC50 [1]: > 20 µM (inactive)

CCCCCCSc1cc(-c2nc3cc(C)ccn3c2NC2CCCCC2)ccc1OC
IC50 [1]: > 20 µM (inactive)

COc1cc(/C=C/c2cc[n+](C)cc2)ccc1OCC(=O)Nc1ccccc1
IC50 [2]: 2.93 µM (active) | IC50 [3]: 2.02 µM (active) | IC50 [4]: 5.84 µM (active)

NS(=O)(=O)c1ccc(CCNCc2ccccc2OCc2ccc(F)cc2)cc1
EC50 [5]: 3.35 µM (active)

O=C1OC(C2=CCCCC2)=NC12CC2
AC50 (Cytochrome P450 3A4 [6]): 5.01 µM (inconclusive)

N#CC1=C(S)N(c2ccccc2)C(c2ccc(-c3ccc(Cl)c(Cl)c3)o2)NC1=O (stereo not given)
IC50 (Large T antigen): 62.7 µM (active)

O=C(c1ccc2c(c1)OCO2)N1CCN=C1SCc1ccccc1
AC50 [7]: > 100 µM (inactive)

CCC1=C2CC[C@H]3C(=O)N(CC)C(=O)[C@H]3[C@H]2[C@@]2(C)/C(=N/CC(=O)OC)OC(=O)N2C1=O
AC50 (Cytochrome P450 3A4 [6]): 15.8 µM (inconclusive)

C[C@@]12CCC(O)C[C@H]1CCC1C2CC[C@]2(C)C(=O)CCC12 (stereo not given in full)
AC50 (Cytochrome P450 3A4 [6]): 15.8 µM (inconclusive)

Clc1ccc(-c2nc3cnccn3c2NC2CCCC2)cc1
AC50 [7]: 4.85 µM (active)

COc1ccc(Nc2c3c(nc4ccccc24)CCCC3)cc1OC
AC50 [7]: 0.511 µM (active)

CC(=O)Nc1ccc(-c2ccccc2)s1
IC50 [2]: 5.3 µM (active) | IC50 [3]: 5.05 µM (active)

N=C1/C(=C/c2ccco2)C(=O)N=C2SC(CC(=O)N3CCCC3)=NN12
IC50 [2]: 18.5 µM (active) | IC50 [3]: 37.6 µM (active) | IC50 [4]: 7.01 µM (active)

CCCC[N+]12CCC(CC1)C(C(O)(c1ccccc1)c1ccccc1)C2 (stereo not given)
EC50 [8]: > 195 µM (not active) | IC50 [2]: 2.74 µM (active) | IC50 [3]: 2.79 µM (active)

CC1Cc2ccccc2N1C(=O)COC(=O)c1ccc(Cl)nc1 (stereo not given)
IC50 (cells): 39.8 µM (active)

CN(C)c1ccc(NC(=O)c2cccc(N3C(=O)CCC3=O)c2)cc1
IC50 (Large T antigen): 9.21 µM (active)

COC(=O)CNC(=O)C1(CC(C)C)C=CCN1C(=O)c1ccccc1 (stereo not given)
AC50 (Cytochrome P450 3A4 [6]): 20 µM (inconclusive)

Cc1cc(Cl)ccc1OC(C)C(=O)Nc1ccc([N+](=O)[O-])cn1 (stereo not given)
IC50 (cells): 38 µM (active)

O=C(Nc1ccc(Oc2ccccc2)nc1)C1CCN(Cc2ccccc2)CC1
EC50 [5]: 2.37 µM (active)

COC(=O)c1ccc(CSc2nc3ccccc3c(=O)n2CC(C)C)o1
EC50 [5]: 3.35 µM (active) | EC50 [9]: > 260 µM (inactive)

Cc1c(C)c2ccc(OCC(=O)Nc3nccs3)cc2oc1=O
AC50 [10]: 4.84 µM (active) | AC50 [11]: 4.38 µM (active) | AC50 [12]: > 52 µM (inactive)

Cc1cc(C)cc(NC(=O)CCc2ccc(C)o2)c1
IC50 (cells): 36.7 µM (active)

O=C(Nc1nc2ccccc2s1)c1ccc2c(c1)OCO2
AC50 [13]: > 52 µM (inactive) | AC50 [14]: > 52 µM (inactive) | AC50 [10]: 3.49 µM (active) | AC50 [11]: 4.59 µM (active) | AC50 [12]: 31.5 µM (active)

CNC(=O)COc1ccc2oc3c(c2c1)CCCC3
EC50 [5]: 1.33 µM (active)

CCCCNc1nc(-c2ccccc2)c(C(=O)OCC)cc1C#N
EC50 [5]: 1.19 µM (active) | AC50 (Cytochrome P450 3A4 [15]): 28.2 µM (inconclusive)

O=C(Nc1nnc(-c2cc(Cl)ccc2Cl)o1)C1=COCCO1
IC50 (cells): 11.6 µM (active)

CCOC(=O)c1cc(C#N)c(N2CCCCC2)nc1-c1ccccc1
EC50 [5]: 3.76 µM (active)

CC(C)NC(=O)N(C)C[C@@H]1Oc2ccc(NC(=O)C3CC3)cc2CC(=O)N([C@@H](C)CO)C[C@@H]1C
AC50 [16]: 64.5 µM (active)

COc1ccc(S(=O)(=O)Nc2ccc3c(c2)C(=O)N([C@@H](C)CO)C[C@H](C)[C@@H](CN(C)C(=O)Nc2cccc4ccccc24)OCCCC[C@H](C)O3)cc1
AC50 [13]: 22.8 µM (active) | AC50 [14]: > 52 µM (inactive) | AC50 [11]: 8.72 µM (active) | AC50 [12]: > 52 µM (inactive)

C/C(CC(=O)Nc1ccc(N(C)C)cc1)=N\NC(=O)c1cnccn1
IC50 (Large T antigen): 17.5 µM (active)

CC(C)(C)[S@+]([O-])N1Cc2cc(C(=O)NC3CCC3)nc(-c3cccc(Br)c3)c2[C@@H]1CCO
AC50 [17]: 7.47 µM (active)

COc1ccc(-c2ccccc2[C@H]2[C@@H](CO)N(C(=O)C3CCOCC3)[C@H]2C#N)cc1
AC50 [17]: > 39 µM (inactive)

CO[C@@H]1CN(C)C(=O)c2ccc(NC(=O)Nc3cccc(F)c3)cc2OC[C@H](C)NC[C@H]1C
AC50 [17]: 7.62 µM (active)

CC1=NN(c2ccccc2)C(=O)C1C(=O)c1ccccc1 (stereo not given)
CC50 [18]: > 40 µM (active) | IC50 (cells): 42.1 µM (active)

COc1cc(OC)c2c(=O)c(-c3ccccc3)c(C)oc2c1OC [2-METHYL-5,7,8-TRIMETHOXYISOFLAVONE]
AC50 (Cytochrome P450 3A4 [6]): 20 µM (inconclusive)

COc1cccc2c1cc([N+](=O)[O-])c1c(C(=O)O)cc3c(c12)OCO3 [ARISTOLOCHIC ACID]
AC50 (Cytochrome P450 3A4 [6]): 10 µM (inconclusive) and 63.1 nM (inconclusive)
